In ChEMBL document CHEMBL5236606, “Synthesis, Structure-Activity Relationships, and In Vivo Evaluation of Novel C-17 Amine Derivatives Based on GSK3640254 as HIV-1 Maturation Inhibitors with Broad Spectrum Activity” (J Med Chem, 2022):

Assays:
[1] = test system: Human immunodeficiency virus 1; assay: Antiviral activity against wild type HIV-1 NLRepRlucP373S infected in human MT2 cells assessed as inhibition of viral growth measured after 4 to 5 days in presence of 10% FBS and 40% human serum supplemented with 27 mg/mL of human serum albumin by Dual luciferase reporter assay; assay type: functional, organism-based; conditions: Human immunodeficiency virus 1, NLRepRlucP373S
[2] = test system: Human immunodeficiency virus 1; assay: Antiviral activity against wild type HIV-1 NLRepRlucP373S infected in human MT2 cells assessed as inhibition of viral growth measured after 4 to 5 days by Dual luciferase reporter assay; assay type: functional, organism-based; conditions: Human immunodeficiency virus 1, NLRepRlucP373S
[3] = Fold resistance, ratio of EC50 for antiviral activity against wild type HIV-1 NLRepRlucP373S infected in human MT2 cells assessed as inhibition of viral growth in presence of 10% FBS and 40% human serum supplemented with 27mg/mL of human serum albumin to EC50 for antiviral activity against wild type HIV-1 NLRepRlucP373S infected in human MT2 cells assessed as inhibition of viral growth; assay type: functional, Human immunodeficiency virus 1
[4] = Cytotoxicity against human MT2 cells assessed as reduction in cell viability; assay type: toxicity, cell-based
[5] = test system: Human immunodeficiency virus 1; assay: Antiviral activity against wild type HIV-1 NLRepRlucP373S harboring T332S/V362I/prR41G mutant infected in human MT2 cells assessed as inhibition of viral growth measured after 4 to 5 days by Dual luciferase reporter assay; assay type: functional, organism-based; conditions: Human immunodeficiency virus 1, NLRepRlucP373S

SMILES | EC50 [1] [nM] | EC50 [2] [nM] | fold change (FC) [3] | CC50 [4] [nM] | EC50 [5] [nM]
C=C(C)[C@@H]1CC[C@]2(NCCC3(O)COC3)CC[C@]3(C)[C@H](CC[C@@H]4[C@@]5(C)CC=C(C6=CC[C@@](CF)(C(=O)O)CC6)C(C)(C)[C@@H]5CC[C@]43C)[C@@H]12 | 27 | 1.9 | 14 | 13000 | 12
C=C(C)[C@@H]1CC[C@]2(NCCC3CCS(=O)(=O)CC3)CC[C@]3(C)[C@H](CC[C@@H]4[C@@]5(C)CC=C(C6=CC[C@](CF)(C(=O)O)CC6)C(C)(C)[C@@H]5CC[C@]43C)[C@@H]12 | 54 | 3.9 | 14 | 14000 | 14
C=C(C)[C@@H]1CC[C@]2(NCCC3(O)CCC3)CC[C@]3(C)[C@H](CC[C@@H]4[C@@]5(C)CC=C(C6=CC[C@](CF)(C(=O)O)CC6)C(C)(C)[C@@H]5CC[C@]43C)[C@@H]12 | 36 | 5.6 | 6.4 | 12000 | 16
C=C(C)[C@@H]1CC[C@]2(NCCN3CCN(S(C)(=O)=O)CC3)CC[C@]3(C)[C@H](CC[C@@H]4[C@@]5(C)CC=C(C6=CC[C@](CF)(C(=O)O)CC6)C(C)(C)[C@@H]5CC[C@]43C)[C@@H]12 | 18 | 2 | 9 | 11400 | 5.7
C=C(C)[C@@H]1CC[C@]2(NCCN3CCOCC3)CC[C@]3(C)[C@H](CC[C@@H]4[C@@]5(C)CC=C(C6=CC[C@](CF)(C(=O)O)CC6)C(C)(C)[C@@H]5CC[C@]43C)[C@@H]12 | 53 | 4.5 | 12 | 7700 | 18
C=C(C)[C@@H]1CC[C@]2(NCC[C@]3(O)CC[C@@H](S(C)(=O)=O)CC3)CC[C@]3(C)[C@H](CC[C@@H]4[C@@]5(C)CC=C(C6=CC[C@@](CF)(C(=O)O)CC6)C(C)(C)[C@@H]5CC[C@]43C)[C@@H]12 | 30 | 2.3 | 13 | 17000 | 6.5
C=C(C)[C@@H]1CC[C@]2(NCCC(C)C)CC[C@]3(C)[C@H](CC[C@@H]4[C@@]5(C)CC=C(C6=CC[C@](CF)(C(=O)O)CC6)C(C)(C)[C@@H]5CC[C@]43C)[C@@H]12 | 1760 | 120 | 15 | 16000 | 930
C=C(C)[C@@H]1CC[C@]2(NCCC3(O)CCS(=O)(=O)CC3)CC[C@]3(C)[C@H](CC[C@@H]4[C@@]5(C)CC=C(C6=CC[C@](CF)(C(=O)O)CC6)C(C)(C)[C@@H]5CC[C@]43C)[C@@H]12 | 19 | 2.3 | 83 | 14000 | 7.7
C=C(C)[C@@H]1CC[C@]2(NCCCC(C)(C)O)CC[C@]3(C)[C@H](CC[C@@H]4[C@@]5(C)CC=C(C6=CC[C@](CF)(C(=O)O)CC6)C(C)(C)[C@@H]5CC[C@]43C)[C@@H]12 | 84 | 14 | 6.3 | 7500 | 44
C=C(C)[C@@H]1CC[C@]2(NCC(C)(C)O)CC[C@]3(C)[C@H](CC[C@@H]4[C@@]5(C)CC=C(C6=CC[C@](CF)(C(=O)O)CC6)C(C)(C)[C@@H]5CC[C@]43C)[C@@H]12 | 147 | 15 | 9.7 | 8700 | 50
C=C(C)[C@@H]1CC[C@]2(NCCC(C)(C)O)CC[C@]3(C)[C@H](CC[C@@H]4[C@@]5(C)CC=C(C6=CC[C@](CF)(C(=O)O)CC6)C(C)(C)[C@@H]5CC[C@]43C)[C@@H]12 | 26 | 1.9 | 14 | 8300 | 8.3
C=C(C)[C@@H]1CC[C@]2(NCCC3(O)CCN(C(C)=O)CC3)CC[C@]3(C)[C@H](CC[C@@H]4[C@@]5(C)CC=C(C6=CC[C@](CF)(C(=O)O)CC6)C(C)(C)[C@@H]5CC[C@]43C)[C@@H]12 | 24 | 1.7 | 14 | 14000 | 6.7
